Bounds are passed on as bounds.

This is an account of results in patent US4939138A, “2- and 3-aminomethyl-6-arylcarbonyl-2,3-dihydropyrrolo(1,2,3-DE)-1,4-benzoxazin es” (Sterling Drug Inc., priority 1989, dated 1990).

Experiment [1] has as its system acetylcholine-induced abdominal constriction. Nature of the experiment: acetylcholine-induced abdominal constriction test (ACH). It counts as in vivo, mice. The settings on record: for ACH percent inhibition: p.o. An excerpt: (§1) The test procedures used to determine the analgesic activities of the compounds have been described in detail in the prior art and are as follows: The acetylcholine-induced abdominal constriction test, which is a primary analgesic screening test designed to measure the ability of a test agent to suppress acetylcholine-induced abdominal constriction in mice, described by Collier et al., Brit. J. Pharmacol. Chemotherap. 32, 295 (1968); a modification of the anti-bradykinin test, which is also a primary analgesic screening procedure, described by Berkowitz et al., J. Pharmacol. Exptl Therap. 177, 500-508 (1971), Blane et al., J. Pharm. Pharmacol 19, 367-373 (1967), Botha et al., Eur. J. Pharmacol. 6, 312-321 (1969) and Deffenu et al., J. Pharm. Pharmacol. 18, 135 (1966); the rat paw flexion test, described by Kuzuna et al., Chem. Pharm. Bull., 23, 1184-1191 (1975), Winter et al., J. Pharm. Exptl. Therap., 211, 678-685 (1979) and Capetola et al., J. Pharm. Exptl. Therap. 214, 16-23 (1980); and the mouse vas deferens adrenergic transmission test, described by Henderson et al., Brit. J. Pharmacol., 46, 764-766 (1972).
In the acetylcholine-induced abdominal constriction test, the test compounds were administered either as suspensions in gum tragacanth (GT) or as aqueous solutions prepared by addition of just sufficient dilute aqueous methanesulfonic acid (MS) or dilute aqueous lactic acid (LA) to dissolve the compound The compounds are identified by the example number above where their preparations are described All data in the anti-bradykinin, rat writhing and Randall-Selitto tests were obtained on oral administration.

Another experiment deals with mouse vas deferens. Nature of the experiment: mouse vas deferens adrenergic transmission test (MVD). Particulars: for IC50: concentration producing 50% of the maximum response; for MVD percent inhibition: 10 μM.
From the text: as §1
As before, the compounds are identified by the example number above where their preparations are described.

[2] abbreviates: dose level 100, suspension in gum tragacanth (GT).

In experiment [1] (setting [2]), `O=C(c1cccc2ccccc12)c1cn2c3c(cccc13)OCC2CN1CCOCC1` (stereo not shown) [Example 2F] returned an ACH percent inhibition of 10%. In the experiment on mouse vas deferens, this compound showed an IC50 of 2 ± 0.03 nM. For the compound “(-)-3-(4-morpholinylmethyl)-5-methyl-6-(5,7-dibromonaphthylcarbonyl)-2,3-dihydropyrrolo[1,2,3-de]-1,4-benzoxazine methanesulfonate [Example 1E]”, the half-maximal inhibitory concentration (IC50) with mouse vas deferens was determined as 2620 ± 1700 nM. The same measure, in the same setting: with `Cc1c(C(=O)c2cccc3c(Br)cc(Br)cc23)c2cccc3c2n1C(CN1CCOCC1)CO3` (single isomer, unassigned; (+)) [Example 2G, (+)-3-(4-morpholinylmethyl)-5-methyl-6-(5,7-dibromo-1-naphthylcarbonyl)-2,3-dihydropyrrolo[1,2,3-de]-1,4-benzoxazine] the figure was 40 ± 5.4 nM; with `COc1ccc(C(=O)c2c(C)n3c4c(cccc24)OCC3CN2CCOCC2)cc1` (single isomer, unassigned; (+)) [2H(d)], 44 ± 13 nM. For `CS(=O)(=O)O.Cc1c(C(=O)c2ccc(Br)c3ccccc23)c2cccc3c2n1C(CN1CCOCC1)CO3` (stereo not shown) [Example 2E, 3-(4-morpholinylmethyl)-5-methyl-6-(4-bromo-1-naphthylcarbonyl)-2,3-dihydropyrrolo[1,2,3-de]-1,4-benzoxazine methanesulfonate], the ACH percent inhibition in experiment [1] (dose level 100, aqueous lactic acid (LA)) was 0%; in experiment [1] (setting [2]), 35%. The compound further showed an IC50 with mouse vas deferens of 2.2 ± 0.2 nM.

Compound `CCc1c(C(=O)c2ccc(OC)cc2)c2cccc3c2n1C(CN1CCOCC1)CO3` (stereo not shown) [Example 2A, 3-(4-morpholinylmethyl)-5-ethyl-6-(4-methoxybenzoyl)-2,3-dihydropyrrolo[1,2,3-de]-1,4-benzoxazine] returned an ACH percent inhibition in experiment [1] (setting [2]) of 20%. Also, in the experiment on mouse vas deferens, the MVD percent inhibition worked out at 27% and the IC50 is more than 10000 nM. For `Cc1c(C(=O)c2cccc3ccccc23)c2cccc3c2n1C(CN1CCOCC1)CO3` (stereo not shown) [1B (CH3 SO3 H), 3-(4-morpholinylmethyl)-5-methyl-6-(1-naphthylcarbonyl)-2,3-dihydropyrrolo1,2,3-de]-1,4-benzoxazine methanesulfonate], in the experiment on mouse vas deferens, the IC50 is 6 ± 0.6 nM. `COc1ccc(C(=O)c2c(C)n3c4c(cccc24)OCC3CN2CCOCC2)cc1` (single isomer, unassigned; (-)) [2H(1), (-)-3-(4-morpholinylmethyl)-5-methyl-6-(4-methoxybenzoyl) -2,3-dihydropyrrolo[1,2,3-de]-1,4-benzoxazine]: in the experiment on mouse vas deferens, the MVD percent inhibition was found to be 44% and the 50% inhibitory concentration (IC50) is more than 10000 nM. In turn, `Cc1c(C(=O)c2cccc3ccccc23)c2cccc3c2n1C(CN1CCOCC1)CO3` (stereo not shown) [1B (base)] showed a 50% inhibitory concentration (IC50) with mouse vas deferens of 4 ± 2 nM. Regarding `CS(=O)(=O)O.Cc1c(C(=O)c2ccccc2F)c2cccc3c2n1C(CN1CCOCC1)CO3` (stereo not shown) [Example 2D, 3-(4-morpholinylmethyl)-5-methyl-6-(2-fluorobenzoyl)-2,3-dihydropyrrolo[1,2,3-de]-1,4-benzoxazine methanesulfonate], the ED50 in experiment [1] (Mus musculus, iv) came out at 2 mg/kg. This compound also registered an ACH percent inhibition in experiment [1] (dose level 100, aqueous methanesulfonic acid (MS)) of 30%. Also, in the experiment on mouse vas deferens, half-maximal inhibition (IC50) required 76 ± 4 nM.

With `Cc1c(C(=O)c2cccc3ccccc23)c2cccc3c2n1CC(CN1CCOCC1)O3` (stereo not shown) [Example 2I, 2-(4-morpholinylmethyl)-5-methyl-6-(1-naphthylcarbonyl-2,3-dihydropyrrolo1,2,3-de]-1,4-benzoxazine], the IC50 with mouse vas deferens came to 4 ± 2 nM.

As a reminder, the IC50 is the point on the concentration scale where inhibition reaches its midpoint. The low end stands for higher potency, the high end for lower potency. Usually ED50 stands for the midpoint of the dose-response relation. High values mean a need for a large dose, low ones an effect at a small dose.
